According to PMC11207729, “Unveiling Anticancer Potential of COX-2 and 5-LOX Inhibitors: Cytotoxicity, Radiosensitization Potential and Antimigratory Activity against Colorectal and Pancreatic Carcinoma” (Pharmaceutics, 2024):
“And” between values parts separate entries of the source, which are not always exact repeats. Equal entries are not always repeated.

Key:
[1] = system: HT-29 cells; experiment: MTT cytotoxicity assay, HT-29; type: cell-based, human; conditions: for IC50: Homo sapiens, HT-29, MTT, 72 h after treatment, mean ± SEM; for Selectivity index (IC50 normal cell line/IC50 cancer cell lines), HT-29: MRC-5 / HT-29, in brackets
Method: (§1) SW620 cells were cultured in Dulbecco’s Modified Eagle’s medium (DMEM, Sigma-Aldrich Chemie GmbH, Steinheim, Germany) and supplemented in the same manner as the previously mentioned cell lines. Cells were grown in cell culture flasks T25 (Sarstedt AG & Co., Nümbrecht, Germany) at appropriate cell densities in the culture medium prior to exposure to treatments. Stock solutions of each compound, prepared in DMSO, were diluted in the culture medium to obtain the appropriate final concentrations.
(§2) The viability of the control and cells treated with the tested compounds was determined by MTT assay. Cells were seeded in 96-well plates at a density of 2000 cells/well, allowed to attach overnight, and then treated with rising concentrations of testing compounds. The ability of viable cells to reduce 3-(4,5-dimethylthiazol-2-yl)-2,5-diphenyltetrazolium bromide into blue-purple formazan crystals, was measured 72 h after the treatments. Namely, l mg/mL of MTT reagent (Sigma-Aldrich Chemie GmbH, Steinheim, Germany) was added to each well and incubated for an additional 4 h. Finally, upon removal of the medium containing MTT, 200 µL of DMSO was added to each well.

[2] = system: MRC-5 cells; experiment: MTT cytotoxicity assay, MRC-5 normal fibroblasts; type: cell-based, human; conditions: for IC50: MTT, 72 h after treatment, mean ± SEM, healthy cell line; for Selectivity index, MRC-5: MRC-5 / MRC-5 (reference value), in brackets
[3] = system: SW620 cells; experiment: Cytotoxicity in SW620 cells after 24 h treatment (Table S2); type: cell-based; conditions: Homo sapiens, SW-620, read-out: IC50 (µM) following 24h treatment in SW620 cells
[4] = system: BxPC-3 cells; experiment: MTT cytotoxicity assay, BxPC-3; type: cell-based, human; conditions: for IC50: MTT, 72 h after treatment, mean ± SEM; for Selectivity index (IC50 normal cell line/IC50 cancer cell lines), BxPC-3: MRC-5 / BxPC-3, in brackets
Method: as §1, §2

[5] = system: HCT 116 cells; experiment: MTT cytotoxicity assay, HCT 116; type: cell-based, human; conditions: for IC50: Homo sapiens, HCT-116, MTT, 72 h after treatment, mean ± SEM; for Selectivity index (IC50 normal cell line/IC50 cancer cell lines), HCT 116: MRC-5 / HCT 116, in brackets
Method: as §1, §2

[6] = system: SW620 cells; experiment: Wound-healing assay; type: cell-based, human; conditions: 25 μM; for Relative Wound Closure (%) 24 h: SW620, 24 h relative to T0, mean ± SEM, control 17.87 ± 3.48; for Relative Wound Closure (%) 48 h: SW620, 48 h relative to T0, mean ± SEM, control 24.51 ± 1.39
Method: The migratory potential of SW620 cells (human colon carcinoma cell line) was evaluated by a wound-healing assay. Cells were seeded in density of 300,000 cells per well in 24-well tissue culture microplates and grown for 24 h in DMEM medium supplemented with 10% FBS, penicillin/streptomycin and L-glutamine at 37 °C in a humidified atmosphere containing 5% CO2. Upon reaching confluence, a uniform wound was scratched into a monolayer of each well with a sterile plastic 200 μL micropipette tip. After wounding, the medium was replaced and cells were further treated with 25 μM of compounds 1, 2, 3, and 5 for 24 h and 48 h. Wound closure was monitored by imaging cells at 4× magnification using the ImageXpress® Pico Automated Cell Imaging System (Molecular Devices®, San Jose, CA, USA) immediately (T0), and at 24 h (T24) and 48 h (T48) after wounding. The captured images were analyzed by ImageJ software v. 1.52p (U.S. National Institutes of Health, Bethesda, MD, USA) to measure the degree of closure of the wounded area. Independent experiments were performed three times.

[7] = system: HT-29 cells; experiment: SRB assay, compound plus γ-radiation, HT-29; type: cell-based, human; conditions: IC50 concentration 24 h before 2 Gy γ-radiation, SRB 72 h after irradiation
Method: In the experiments involving irradiation, cells were irradiated at room temperature, in the vertical position with the cell monolayer facing ^60Co γ-rays (CIRUS-Cis Biointernational). The irradiation of samples was performed in Vinča Institute of Nuclear Sciences, Belgrade, Serbia. In all experiments, a clinically relevant radiation dose of 2 Gy with the dose rate of ~1 Gy/min was applied.
For the evaluation of cell viability after treatments with radiation as well as after combined treatments, a sulforhodamine B (SRB) protein binding assay was used. This assay is based on the staining of cellular proteins. Maintaining conditions were identical to that of MTT assay. The cells were pretreated with IC50 concentrations of tested compounds for 24 h before irradiations. Following the 72 h post-irradiation incubation time under standard conditions (5% CO2, 37 °C) cells were fixed by protein precipitation with 10% trichloroacetic acid (TCA) at 4 °C for 1 h. Plates were rinsed with distillated water and stained with 0.4% SRB (Sigma-Aldrich Chemie GmbH, Steinheim, Germany) in 1% acetic acid, for 15 min at room temperature. Excess stain was removed by washing the wells in 1% acetic acid. After being rinsed, microwell plates were air dried until no staining moisture was visible. Bound dye was dissolved in 10 mM unbuffered Tris base (pH 10.5) for 5 min on a gyratory shaker. The absorbance of each well was measured using a microplate reader (Wallac VICTOR2 1420 Multilabel counter, PerkinElmer, Turku, Finland) at a test wavelength of 550 nm.

[8] = system: SW620 cells; conditions: cited from earlier work

| SMILES | IC50 [1] [µM] | Selectivity index (IC50 normal cell line/IC50 cancer cell lines), HT-29 [1] | IC50 ([2]; Homo sapiens, MRC5, 72 h) [µM] | Selectivity index, MRC-5 [2] | IC50 [3] [µM] | IC50 ([4]; Homo sapiens, BXPC-3, 72 h) [µM] | Selectivity index (IC50 normal cell line/IC50 cancer cell lines), BxPC-3 [4] | IC50 [5] [µM] | Selectivity index (IC50 normal cell line/IC50 cancer cell lines), HCT 116 [5] | Relative Wound Closure (%) 24 h [6] | Relative Wound Closure (%) 48 h [6] | cell proliferation, combined treatment versus radiation alone, HT-29 [7] | IC50 [2] [µM] | IC50 [4] [µM] | antimigratory effects on SW620 cell line ([8]; 10 nM, after 24 h) | migratory ability of SW620 cells ([8]; 400 μM, after 36 h) | antimigratory properties in SW620 cells ([8]; 30 μM, 48 h) |
| --- | --- | --- | --- | --- | --- | --- | --- | --- | --- | --- | --- | --- | --- | --- | --- | --- | --- |
| COc1ccc2c(c1)c(CNC(=O)NO)c(C)n2C(=O)c1ccc(Cl)cc1 [Compound 1] | 9.78 ± 0.68 | 0.99 | 9.68 ± 2.34 | 1 | 215 ± 4.9 | 12.8 ± 1.11 | 0.76 | 4.97 ± 0.78 | 1.95 | 3.20% and 3.20 ± 0.99% | 5.08% and 5.08 ± 2.46% | – | – | – | – | – | – |
| CC(NC(=O)NO)c1ccc(-c2ccccc2)c(F)c1 (stereo not drawn) [Compound 2] | 82.4 ± 4.25 | 0.84 | 69.1 ± 3.07 | 1 | 386 ± 11.8 | 48.7 ± 4.6 | 1.42 | 64.8 ± 2.76 | 1.07 | 7.47 ± 2.14% | 11.61 ± 3.06% | – | – | – | – | – | – |
| COC(=O)C(Cc1cnc[nH]1)NC(=O)c1cc(C(C)(C)C)c(O)c(C(C)(C)C)c1 (stereo not drawn) [Compound 4] | 42.3 ± 2.57 | 0.84 | 35.4 ± 4.14 | 1 | – | 24.7 ± 2.01 | 1.43 | 29.5 ± 5.23 | 1.20 | – | – | – | – | – | – | – | – |
| COC(=O)CNC(=O)c1cc(C(C)(C)C)c(O)c(C(C)(C)C)c1 [Compound 5] | 81.6 ± 2.77 | > 1.22 | > 100 | – | 132 ± 3.5 | 41.2 ± 2.88 | > 2.43 | 51.7 ± 1.78 | > 1.94 | 7.12 ± 1.43% | 9.11 ± 0.27% | significantly inactivated HT-29 cells | – | – | – | – | – |
| CCOc1ccccc1NC(=O)N(C)C [Compound 8] | > 100 | – | > 100 | – | – | > 100 | – | > 100 | – | – | – | – | – | – | – | – | – |
| CN(C)C(=O)Nc1ccccc1C(=O)O [Compound 9] | > 100 | – | > 100 | – | – | > 100 | – | > 100 | – | – | – | – | – | – | – | – | – |
| CCOc1ccccc1NC(=O)Nc1ccc([N+](=O)[O-])cc1 [Compound 10] | 7.08 ± 0.3 | 2.64 | 18.7 ± 0.98 | 1 | – | 6.05 ± 1.68 | 3.09 | 9.3 ± 0.38 | 2.01 | – | – | – | – | – | – | – | – |
| CC(=O)N(O)C(C)c1ccc(CC(C)C)cc1 (stereo not drawn) [Compound 11] | 84.1 ± 3.43 | 0.68 | 57.1 ± 3.8 | 1 | – | 63 ± 3.8 | 0.91 | 82 ± 2.34 | 0.70 | – | – | – | – | – | – | – | – |
| COc1ccc2cc(C(C)N(O)C(C)=O)ccc2c1 (stereo not drawn) [Compound 12] | > 100 | – | > 100 | 1 | – | > 100 | 0.83 | > 100 | – | – | – | – | 63.6 ± 9.04 | 76.7 ± 5.54 | – | – | – |
| CC(C)(C)c1cc(/C=C2\SC(=S)N(N)C2=O)cc(C(C)(C)C)c1O [Compound 13] | 12.4 ± 1.95 | 4.60 | 57.1 ± 3.8 | 1 | – | 1.8 ± 0.1 | 31.72 | 2.21 ± 0.12 | 25.84 | – | – | – | – | – | – | – | – |
| O=C(O)Cc1ccccc1Nc1c(Cl)cccc1Cl [Diclofenac, reference compound] | 75 ± 3.98 | – | – | – | – | 57.2 ± 3.03 | – | 79.1 ± 3.68 | – | – | – | – | – | – | – | – | – |
| CC(C(=O)O)c1ccc(-c2ccccc2)c(F)c1 (stereo not drawn) [Flurbiprofen, reference compound] | > 100 | – | > 100 | – | – | > 100 | – | > 100 | – | – | – | – | – | – | significant antimigratory effects | – | – |
| COc1ccc2c(c1)c(CC(=O)O)c(C)n2C(=O)c1ccc(Cl)cc1 [Indomethacin, reference compound] | 89.5 ± 4.45 | 0.89 | 79.8 ± 5.9 | 1 | – | 85.9 ± 2.58 | 0.93 | 60.4 ± 4.27 | 1.32 | – | – | – | – | – | – | significantly decreased the migratory ability | – |
| Cc1ccc(-c2cc(C(F)(F)F)nn2-c2ccc(S(N)(=O)=O)cc2)cc1 [celecoxib] | – | – | – | – | – | – | – | – | – | – | – | – | – | – | – | – | comparable efficacy to compounds 1, 2, 3 and 5 |
